We go through five compounds from article PMC8294803, “A Roadmap to the Structure-Related Metabolism Pathways of Per- and Polyfluoroalkyl Substances in the Early Life Stages of Zebrafish (Danio rerio)” (Environmental Health Perspectives, 2021).

“And” between values parts separate entries of the source, which are not always exact repeats. Equal values may be shown once.

The first data set has as its system zebrafish larvae. As to the kind of experiment: Nontargeted analysis of PFAS metabolites in zebrafish larvae (high-resolution MS). The note with it: in vivo, nontargeted analysis. The procedure:
(§1) Zebrafish embryos were collected immediately after spawning, within 1 h, and subsequently transferred to 24-well plates with 1mL of facility water ( 0.036g sea salt, 0.15g sodium bicarbonate in 2L of reverse osmosis water). […] Three well replicates on the same plate were conducted for each concentration of individual chemical. […] Seven batches of experiments were performed to test all 74 PFAS. DMSO controls were incorporated in each batch of exposure experiments. Three replicates were performed for each treatment group, and 20 embryos were used for each replicate. […] For daily replenishment, 2.5mL of old exposure medium were replaced with freshly prepared medium every 24 h from 24 to 96 h post fertilization (hpf). Hatched or dead embryo numbers were recorded every 24 hpf, after which dead embryos were discarded from the growth media. Dead embryos or unhatched embryos were not used for PFAS measurement because the metabolism of PFAS might have been impacted. Zebrafish larvae collection occurred at 120 hpf. First, the larvae were anesthetized by cooling the plate in ice water (0–4°C) for ∼20 min . Then 8–15 larvae in each well were transferred into 1.5-mL tubes. Exposure media was carefully removed, and then the larvae were weighed (wet weight) after blotting excess water with a paper towel. […] Samples were stored at −80 °C until further chemical analysis was performed. Survival rate and hatching rate were calculated by summarizing all the documented data from the whole treatment duration. […] The exposure experiment of PFOSA was repeated using the same procedure as described above.
(§2) Each sample was spiked with 2μL of 0.2μg/mL mass-labeled PFAS mixture. Following this, 500μL of dichloromethane/methanol (2:1, vol/vol) was added to each sample for PFAS extraction. Larvae were then homogenized via ultrasonic probe, followed by 30 min of shaking and 30 min of sonication. Each sample was centrifuged at 14,000×g for 5 min, after which the supernatant was transferred to new tubes. Extraction was repeated once and the two supernatants were combined, evaporated under nitrogen flow, and reconstituted in 200μL of methanol for MS analysis.
(§3) Three microliters of each zebrafish extract was applied to a C18 column ( 1.5μm; 2.1mm×50mm; Thermo Scientific) and analyzed using a Vanquish ultra-HPLC system (Thermo Fisher Scientific) coupled to a Q Exactive high-resolution mass spectrometer (Thermo Fisher Scientific). The sampler and column compartments were maintained at 4°C and 40°C, respectively. The aqueous mobile phase solution (A) consisted of water, whereas the organic mobile phase solution (B) consisted of acetonitrile. […] MS data was acquired in full scan mode (100–1000 m/z, 70,000 mass resolution, 3×10^6 maximum ions collected per 100 ms), and tandem MS (MS/MS) data was recorded by all-ion fragmentation (AIF) mode. Negative and positive ion modes were carried out simultaneously at a 10-min method duration. […] An overview of the analyses conducted on the various PFAS is available in Table S2.
Nontargeted data analysis was accomplished with R scripts that are available on Github (https://github.com/huiUofT/PFASmetabolite). […] The peak features were matched across samples with a mass tolerance of 2.5 ppm and a RT window of 20 s, after RT adjustment. The ratio of abundances of each feature in treatment groups relative to the control group (DMSO) was calculated. The p -values of the difference between two groups were determined by student’s t -tests.
With “2,2-Difluoroethyl triflate [compound 13]”, the “Metabolites / hydrolysis products in zebrafish larvae” value (shortened to “Metabolites / hydrolysis products”) was “metabolites were not detected”.

For “2-(Trifluoromethoxy)ethyl trifluoromethanesulfonate [compound 10]”, the “Metabolites / hydrolysis products” value is “metabolites were not detected”.

Consider `C=C(C)C(=O)OCCC(F)(F)C(F)(F)C(F)(F)C(F)(F)C(F)(F)C(F)(F)F` [compound 2, 6:2 Fluorotelomer methacrylate], for which the “Metabolites / hydrolysis products” value is “hydrolysis products (i.e., sulfated 6:2 FTOH) were also detected”.

The same data set, now with this note: zebrafish larvae, Figure 5B.
With `OCC(F)(F)OC(F)(F)C(F)(F)OC(F)(F)CO` [compound 32, 1H,1H,8H,8H-Perfluoro-3,6-dioxaoctane-1,8-diol], the “Profile of metabolites (%): Alcohol” value amounted to 48.26%.

Turning to `OCC(F)(F)C(F)(F)C(F)(F)C(F)(F)C(F)(F)C(F)F` [compound 67, Dodecafluoroheptanol], the “Profile of metabolites (%): Alcohol” value is listed as 0.00%.

The data set is the same for the next values; noted with them: zebrafish larvae, single replicates, Figure 5A.
In the case of `OCC(F)(F)OC(F)(F)C(F)(F)OC(F)(F)CO` [compound 32, 1H,1H,8H,8H-Perfluoro-3,6-dioxaoctane-1,8-diol], the “Peak intensity: Alcohol (parent FTOH)” value is 13344387 and 7489514 and 11717785.

Consider `OCC(F)(F)C(F)(F)C(F)(F)C(F)(F)C(F)(F)C(F)F` [compound 67, Dodecafluoroheptanol], for which the “Peak intensity: Alcohol (parent FTOH)” value was found to be 0.

The subject of the next data set is zebrafish embryos.
Experiment: not given
The settings on record: 5μM through 120 hpf, malformation rate.
In the case of “2,2-Difluoroethyl triflate [compound 13]”, the “pericardial oedemata, Mean” value was determined as 2.22%; the “spinal curvature, Mean” value was 0.00%; the “tail dysplasia, Mean” value was 1.11%.

Take “2-(Trifluoromethoxy)ethyl trifluoromethanesulfonate [compound 10]”: the “pericardial oedemata, Mean” value is given as 2.22%; the “spinal curvature, Mean” value was 1.11%; the “tail dysplasia, Mean” value is listed as 0.00%.

For `C=C(C)C(=O)OCCC(F)(F)C(F)(F)C(F)(F)C(F)(F)C(F)(F)C(F)(F)F` [compound 2, 6:2 Fluorotelomer methacrylate], the “pericardial oedemata, Mean” value came out at 3.33%; the “spinal curvature, Mean” value stood at 1.11%; the “tail dysplasia, Mean” value is 4.44%.

Regarding `OCC(F)(F)OC(F)(F)C(F)(F)OC(F)(F)CO` [compound 32, 1H,1H,8H,8H-Perfluoro-3,6-dioxaoctane-1,8-diol], the “pericardial oedemata, Mean” value is given as 1.11%; the “spinal curvature, Mean” value is listed as 0.00%; the “tail dysplasia, Mean” value came to 1.11%.

On to `OCC(F)(F)C(F)(F)C(F)(F)C(F)(F)C(F)(F)C(F)F` [compound 67, Dodecafluoroheptanol], for which the “pericardial oedemata, Mean” value worked out at 1.11%; the “spinal curvature, Mean” value came out at 0.00%; the “tail dysplasia, Mean” value was 0.00%.

The same data set, now with this note: 5 µM, exposure through 120 hpf.
On to “2,2-Difluoroethyl triflate [compound 13]”, for which the “Mortality (%)” value was 2.2%.

For “2-(Trifluoromethoxy)ethyl trifluoromethanesulfonate [compound 10]”, the “Mortality (%)” value stood at 0%.

On to `C=C(C)C(=O)OCCC(F)(F)C(F)(F)C(F)(F)C(F)(F)C(F)(F)C(F)(F)F` [compound 2, 6:2 Fluorotelomer methacrylate], for which the “Mortality (%)” value is recorded as 0%.

Regarding `OCC(F)(F)OC(F)(F)C(F)(F)OC(F)(F)CO` [compound 32, 1H,1H,8H,8H-Perfluoro-3,6-dioxaoctane-1,8-diol], the “Mortality (%)” value was determined as 3.3%.

As for `OCC(F)(F)C(F)(F)C(F)(F)C(F)(F)C(F)(F)C(F)F` [compound 67, Dodecafluoroheptanol], the “Mortality (%)” value was 0%.

The next data set deals with zebrafish larvae. As to the kind of experiment: Bioconcentration factors (BCF) of PFAS in zebrafish larvae. The settings on record: zebrafish larvae. The method, then:
as §1, §2, §3
GraphPad Prism (version 7.0.4; GraphPad Software) and R studio (version 1.1.456; R Studio Inc.) software was used, and an ANOVA with Dunnett tests was employed to evaluate the statistical significance of the percentage hatched and mortality rate. Exponential regressions were used to determine the relationships between bioconcentration factor (BCF) and binding affinities ( Kd ) to L-FABP.
Consider `OCC(F)(F)OC(F)(F)C(F)(F)OC(F)(F)CO` [compound 32, 1H,1H,8H,8H-Perfluoro-3,6-dioxaoctane-1,8-diol], for which the “BCF at 0.5μM compared with 5μM” value is listed as “comparable or even higher BCFs at 5μM”.

Still in this data set, the particulars now being: zebrafish larvae, 0.5 µM exposure, 120 hpf, three replicates.
In the case of `OCC(F)(F)OC(F)(F)C(F)(F)OC(F)(F)CO` [compound 32, 1H,1H,8H,8H-Perfluoro-3,6-dioxaoctane-1,8-diol], the “BCF 0.5µM” value was determined as 5.939 L/kg.

Still in this data set, the particulars now being: zebrafish larvae, 5 µM exposure, 120 hpf, three replicates.
In the case of `OCC(F)(F)OC(F)(F)C(F)(F)OC(F)(F)CO` [compound 32, 1H,1H,8H,8H-Perfluoro-3,6-dioxaoctane-1,8-diol], the “BCF 5µM” value stood at 8.4 ± 1.1 L/kg.

In another data set the target is T1, recombinant human liver carboxylesterase 1 (hCES1) (Homo sapiens, UniProt P23141).
T1 construct: purchased Sigma Aldrich
T1 sequence (P23141 18-567): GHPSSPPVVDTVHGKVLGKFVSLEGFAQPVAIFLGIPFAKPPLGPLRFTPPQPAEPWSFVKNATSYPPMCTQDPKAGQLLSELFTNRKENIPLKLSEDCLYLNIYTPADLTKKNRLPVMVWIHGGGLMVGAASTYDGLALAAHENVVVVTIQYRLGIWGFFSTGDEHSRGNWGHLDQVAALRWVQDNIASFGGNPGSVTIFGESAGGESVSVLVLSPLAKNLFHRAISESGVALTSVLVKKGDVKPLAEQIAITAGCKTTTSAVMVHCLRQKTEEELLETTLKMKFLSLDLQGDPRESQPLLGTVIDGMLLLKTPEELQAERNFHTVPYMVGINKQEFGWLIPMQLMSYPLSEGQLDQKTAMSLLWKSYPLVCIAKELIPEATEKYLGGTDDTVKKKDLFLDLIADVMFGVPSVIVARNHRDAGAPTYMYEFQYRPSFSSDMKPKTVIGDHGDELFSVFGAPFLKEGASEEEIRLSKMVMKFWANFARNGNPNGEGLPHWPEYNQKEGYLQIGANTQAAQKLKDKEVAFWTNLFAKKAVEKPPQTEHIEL
As to the kind of experiment: Hydrolysis of PFAS by recombinant hCES1. The format is in vitro ADME. The note with it: 10 µM parent PFAS; incubated with hCES1; three replicates. The procedure: Because recombinant zebrafish CES is not available, we decided to use hCES1 to evaluate the structure-related hydrolysis of PFAS. […] In vitro enzymatic activity experiments were carried out for 1 h in 1.5-mL tubes with 100μL phosphate buffer ( 137 mM sodium chloride, 10 mM phosphate buffer, 2.7 mM potassium chloride; pH 7.4) at 37°C with shaking. Reaction mixtures contained different concentrations of PFAS (1, 10, and 50μM ) and 100μg/L hCES1. […] To stop the hydrolysis reaction, four times the volume of ice-cold methanol was added. The hCES1 protein was precipitated out by centrifugation ( 14,000×g , 10 min). The supernatant was transferred to a new tube and analyzed via MS for the analysis of parent compounds and suspected metabolites (i.e., carboxylates).
With “2,2-Difluoroethyl triflate [compound 13]”, the “concentration of corresponding hydrolysis product detected from parent PFAS, hCES1” value was 0 nM.

In the case of “2-(Trifluoromethoxy)ethyl trifluoromethanesulfonate [compound 10]”, the “concentration of corresponding hydrolysis product detected from parent PFAS, hCES1” value worked out at 0 nM.

The data set is the same for the next values; noted with them: 10 µM parent PFAS; vehicle control group without hCES1; three replicates.
In the case of “2,2-Difluoroethyl triflate [compound 13]”, the “concentration of corresponding hydrolysis product detected from parent PFAS, Control” value came to 0 nM.

“2-(Trifluoromethoxy)ethyl trifluoromethanesulfonate [compound 10]”: the “concentration of corresponding hydrolysis product detected from parent PFAS, Control” value came to 0 nM.

The data set is the same for the next values; noted with them: from 10μM of parent, 100μg/L hCES1, 37°C.
For “2,2-Difluoroethyl triflate [compound 13]”, the “Concentration of hydrolysis product” value is given as “not detected”.

In the case of “2-(Trifluoromethoxy)ethyl trifluoromethanesulfonate [compound 10]”, the “Concentration of hydrolysis product” value was “not detected”.
